According to ChEMBL document CHEMBL1151533, “Dihydropyrimidine calcium channel blockers 51: bicyclic dihydropyrimidines as potent mimics of dihydropyridines” (Bioorg Med Chem Lett, 1991):
pIC50: −log10 of the molar value.

Legend:
Oryctolagus cuniculus = species: Oryctolagus cuniculus; experiment: Compound was evaluated for vasorelaxant activity determined using potassium-depolarized rabbit thoracic aorta; assay type: functional
Rattus norvegicus = experiment: In vivo antihypertensive activity of compound was determined at 45 umol/kg administered orally in spontaneously hypertensive rats; % reduction in blood pressure; assay type: functional

| SMILES | pIC50 (Oryctolagus cuniculus) | Reduction (Rattus norvegicus) [%] |
| --- | --- | --- |
| CC1=Nc2c(C#N)cnn2C(c2cccc([N+](=O)[O-])c2)/C1=C(/O)OC(C)C (configuration not stated) | 8.15 |  |
| COC(=O)c1cnn2c1N=C(C)/C(=C(\O)OC(C)C)C2c1cccc([N+](=O)[O-])c1 (configuration not stated) | 5.94 |  |
| CC1=Nc2cc(=O)n(Cc3ccccc3)n2C(c2cccc([N+](=O)[O-])c2)/C1=C(/O)OC(C)C (configuration not stated) | 8.30 |  |
| CCOC(=O)C1=C(C)N=C2NCCCN2C1c1cccc(Cl)c1Cl (configuration not stated) | 5.54 |  |
| CCO/C(O)=C1/C(C)=Nc2c(C#N)cnn2C1c1cccc(Cl)c1Cl (configuration not stated) | 8.82 | 20 |
| CCO/C(O)=C1/C(C)=Nc2nc(SC)nn2C1c1cccc(Cl)c1Cl (configuration not stated) | 6.21 |  |
| CC1=Nc2c(C(N)=O)cnn2C(c2cccc([N+](=O)[O-])c2)/C1=C(/O)OC(C)C (configuration not stated) | < 6.00 |  |
| COC(=O)C1=C(C)NC(C)=C(C(=O)OC)C1c1ccccc1[N+](=O)[O-] [NIFEDIPINE] | 8.60 | 33 |

More lines, in order of rising pIC50 (Oryctolagus cuniculus), values ahead:

| pIC50 (Oryctolagus cuniculus) | SMILES | Reduction (Rattus norvegicus) [%] |
| --- | --- | --- |
| 6.50 | CC1=Nc2cc(=O)[nH]n2C(c2cccc([N+](=O)[O-])c2)/C1=C(/O)OC(C)C (configuration not stated) |  |
| 7.02 | CCO/C(O)=C1/C(C)=Nc2nccn2C1c1cccc(Cl)c1Cl (configuration not stated) |  |
| 7.27 | CC1=Nc2cc(=O)n(C(=O)c3ccccc3)n2C(c2cccc([N+](=O)[O-])c2)/C1=C(/O)OC(C)C (configuration not stated) |  |
| 7.64 | CCCNC(=O)n1c(=O)cc2n1C(c1cccc([N+](=O)[O-])c1)/C(=C(/O)OC(C)C)C(C)=N2 (configuration not stated) |  |
| 7.68 | CCO/C(O)=C1/C(C)=Nc2ccnn2C1c1cccc(Cl)c1Cl (configuration not stated) |  |
| 8.00 | CC1=Nc2cc(=O)n(S(=O)(=O)c3ccccc3)n2C(c2cccc([N+](=O)[O-])c2)/C1=C(/O)OC(C)C (configuration not stated) |  |
| 8.52 | CCOC(=O)N1C(=S)N=C(C)/C(=C(/O)OCC)C1c1cccc([N+](=O)[O-])c1 (configuration not stated) |  |
